Results as given in paper PMC11219766 (Nature Communications, 2024).

How the values were obtained:
CIB1 [1] = biological target: T1, CIB1 (Homo sapiens, UniProt Q99828); assay: biochemical
Text: (§1) Binding of the 56 purchased compounds was experimentally assessed in a time-resolved fluorescence energy transfer (TR-FRET) assay (see Fig. 3A and Supplementary data 1). Briefly, it serves as a displacement assay using an AlexaFluor-labeled cyclic CIB1-binding peptide and a Europium (Eu)-labeled Streptavidin donor for attachment to the AviTag biotinylated CIB1 protein (described previously in Puhl et al. and Haberman et al.[47],[62]).
(§2) A CIB1 TR-FRET assay uses an AlexaFluor-labeled cyclic CIB1-binding peptide and a Europium (Eu)-labeled Streptavidin donor for attachment to the AviTag biotinylated CIB1 protein. […] Compounds were dispensed into 384-well plates using a Mosquito HTS nanoliter instrument (TTP LABTech) as 3-fold serial dilutions (100x in DMSO, 0.1 μL) for final concentrations ranging from 100 μM to 0.5 nM. Biotinylated CIB1 was diluted to a final concentration of 3 nM in assay buffer (20 mM) TRIS pH 7.5, 150 mM NaCl, 1 mM CaCl, 1 mM CHAPS, and 1 mM DTT (added fresh each time), and 5 μL of diluted protein was added to the wells of the assay plate using a Multidrop Combi Reagent Dispenser (Thermo Scientific) and incubated at room temperature for 20 min. 5 μL detection solution containing 2 nM Lance Eu-Streptavidin (Perkin Elmer) and 30 nM Alexa647-CIB1-phage peptide diluted in assay buffer was added to the wells and incubated 30–60 min at room temperature protected from light. TR-FRET signals were measured using an Envision Multilabel Plate Reader (PerkinElmer; Eu excitation 320 nm, Eu emission 615 nm, Alexa dye emission 665 nm). […] Inhibition curves were analyzed using a four-parameter non-linear curve fit using ScreenAble software, and the mean and standard deviation were calculated. Publication curves were averaged and fit with a four-parameter non-liner curve fit using GraphPad Prism.

CIB1 [2] = biological target: T1, CIB1
Text: as §1, §2

T1 sequence (Q99828 whole entry): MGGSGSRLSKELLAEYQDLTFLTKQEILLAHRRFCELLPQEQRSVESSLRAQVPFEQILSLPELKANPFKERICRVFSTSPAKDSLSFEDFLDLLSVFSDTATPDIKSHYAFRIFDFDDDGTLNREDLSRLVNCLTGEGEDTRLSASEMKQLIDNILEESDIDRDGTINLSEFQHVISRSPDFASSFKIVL

| SMILES | IC50 (CIB1 [1]) | Hill slope (CIB1 [2]) |
| --- | --- | --- |
| Cc1cc(C)cc(OCCCn2cc(C=C3C(=O)NC(=O)N(Cc4ccco4)C3=O)c3ccccc32)c1 [UNC10245541, Cc1cc(C)cc(OCCCn2cc(C=C3C(=O)NC(=O)N(Cc4ccco4)C3=O)c3ccccc23)c1] | 4.3 µM |  |
| Cc1noc(C)c1COc1cccc(C(=O)Nc2cccc(S(=O)(=O)Nc3cccc(C(F)(F)F)c3)c2)c1 [UNC10245406A, Cc1noc(C)c1COc1cccc(c1)C(=O)Nc1cccc(c1)S(=O)(=O)Nc1cccc(c1)C(F)(F)F] | 39 µM |  |
| COc1ccccc1OCCC1CCN(C(=O)C2CCN(S(=O)(=O)c3cccc4nonc34)CC2)C1 (centres unmarked) [UNC10245474A, COc1ccccc1OCCC1CCN(C1)C(=O)C1CCN(CC1)S(=O)(=O)c1cccc2nonc12] | 75 µM |  |
| COc1ccccc1N1CCN(C(=O)CCCc2nnc3n(CC(C)C)c(=O)c4sccc4n23)CC1 [UNC10245420A, COc1ccccc1N1CCN(CC1)C(=O)CCCc1nnc2n(CC(C)C)c(=O)c3sccc3n12] | 87 µM |  |
| COc1cccc(OCCn2cc(C=C3C(=O)NC(=O)N(Cc4ccco4)C3=O)c3ccccc32)c1 [UNC10245542, COc1cccc(OCCn2cc(C=C3C(=O)NC(=O)N(Cc4ccco4)C3=O)c3ccccc23)c1] | 50 µM |  |
| O=C(NCc1ccc2c(c1)OCO2)C1CCN(S(=O)(=O)c2cccc3nsnc23)CC1 [UNC10245381A, O=C(NCc1ccc2OCOc2c1)C1CCN(CC1)S(=O)(=O)c1cccc2nsnc12] | 84 µM |  |
| Cc1cc(NC(=O)CSc2nc3ccccc3c(=O)n2CC2CCC(C(=O)NCc3ccccc3Cl)CC2)n[nH]1 (centres unmarked) [UNC10245433A, Cc1cc(NC(=O)CSc2nc3ccccc3c(=O)n2CC2CCC(CC2)C(=O)NCc2ccccc2Cl)n[nH]1] | 8.8 µM |  |
| Cc1cc(OCCCn2cc(C=C3C(=O)NC(=O)N(Cc4ccco4)C3=O)c3ccccc32)cc(C)c1Cl [UNC10245540, Cc1cc(OCCCn2cc(C=C3C(=O)NC(=O)N(Cc4ccco4)C3=O)c3ccccc23)cc(C)c1Cl] | 23 µM |  |
| Cc1ccc(C)c(S(=O)(=O)N2CCN(C(=O)CSc3nnc(-c4ccc5c(c4)OCO5)n3-c3ccccc3)CC2)c1 [UNC10245404A, Cc1ccc(C)c(c1)S(=O)(=O)N1CCN(CC1)C(=O)CSc1nnc(-c2ccc3OCOc3c2)n1-c1ccccc1] | 14 µM |  |
| O=C1NC(=O)N(Cc2ccco2)C(=O)C1=Cc1cn(CCCOc2ccccc2Cl)c2ccccc12 [UNC10245536, Clc1ccccc1OCCCn1cc(C=C2C(=O)NC(=O)N(Cc3ccco3)C2=O)c2ccccc12] | 12 µM |  |
| CC1Cc2ccccc2N1C(=O)CC1CCN(S(=O)(=O)c2ccc3c(c2)oc(=O)n3C)CC1 (centres unmarked) [UNC10245457A, CC1Cc2ccccc2N1C(=O)CC1CCN(CC1)S(=O)(=O)c1ccc2n(C)c(=O)oc2c1] | 44 µM |  |
| COc1ccccc1OCCn1cc(C=C2C(=O)NC(=O)N(Cc3ccco3)C2=O)c2ccccc21 [UNC10245537, COc1ccccc1OCCn1cc(C=C2C(=O)NC(=O)N(Cc3ccco3)C2=O)c2ccccc12] | 22 µM |  |
| CCOC(=O)c1cc(-c2ccc(N3CCN(C(=O)COc4ccccc4)CC3)cc2)n(-c2ccccc2OC)n1 [UNC10245416A, CCOC(=O)c1cc(-c2ccc(cc2)N2CCN(CC2)C(=O)COc2ccccc2)n(n1)-c1ccccc1OC] | 12 µM |  |
| O=C(Nc1cccc2ncccc12)c1cccc(NS(=O)(=O)c2ccc3c(c2)OCCCO3)c1 [UNC10245399A, O=C(Nc1cccc2ncccc12)c1cccc(NS(=O)(=O)c2ccc3OCCCOc3c2)c1] | 59 µM |  |
| CC(c1nnc(SCC(=O)Nc2ccc(Oc3ccccc3)cc2)n1C)N1C(=O)COc2ccccc21 (centres unmarked) [UNC10245386A, CC(N1C(=O)COc2ccccc12)c1nnc(SCC(=O)Nc2ccc(Oc3ccccc3)cc2)n1C] | 33 µM |  |
| O=C1NC(=O)N(Cc2ccco2)C(=O)C1=Cc1cn(CCCOc2ccccc2)c2ccccc12 [UNC10245534, O=C1NC(=O)C(=Cc2cn(CCCOc3ccccc3)c3ccccc23)C(=O)N1Cc1ccco1] | 24 µM |  |
| COc1ccc(OCCn2cc(C=C3C(=O)NC(=O)N(Cc4ccco4)C3=O)c3ccccc32)cc1 [UNC10245538, COc1ccc(OCCn2cc(C=C3C(=O)NC(=O)N(Cc4ccco4)C3=O)c3ccccc23)cc1] | 19 µM |  |
| CCOc1ccccc1NC(=O)Nc1cccc(OCc2cc(=O)n3ccccc3n2)c1 [UNC10245432A, CCOc1ccccc1NC(=O)Nc1cccc(OCc2cc(=O)n3ccccc3n2)c1] | 43 µM |  |
| CN(Cc1ccco1)C(=O)c1ccc(COc2ccc3c(c2)C(c2cccc(F)c2)N(C(=O)C2CC2)CC3)o1 (centres unmarked) [UNC10245413A, CN(Cc1ccco1)C(=O)c1ccc(COc2ccc3CCN(C(c4cccc(F)c4)c3c2)C(=O)C2CC2)o1] | 48 µM |  |
| COc1cccc(OCCCn2cc(C=C3C(=O)NC(=O)N(Cc4ccco4)C3=O)c3ccccc32)c1 [UNC10245380A, COc1cccc(OCCCn2cc(C=C3C(=O)NC(=O)N(Cc4ccco4)C3=O)c3ccccc23)c1] |  | 1.5–2.5 |
| COc1ccc(OCCCn2cc(C=C3C(=O)NC(=O)N(Cc4ccco4)C3=O)c3ccccc32)cc1 [UNC10245539, COc1ccc(OCCCn2cc(C=C3C(=O)NC(=O)N(Cc4ccco4)C3=O)c3ccccc23)cc1] | 18 µM |  |
| CC(c1cc(-c2ccccc2)[nH]n1)N(C)C(=O)C1CCN(c2cccc3c2C(=O)N(Cc2cccs2)C3=O)CC1 (centres unmarked) [UNC10245397A, CC(N(C)C(=O)C1CCN(CC1)c1cccc2C(=O)N(Cc3cccs3)C(=O)c12)c1cc([nH]n1)-c1ccccc1] | 24 µM |  |
| COc1cccc(C(=O)N(CC(=O)Nc2ccc(N3CCN(C(=O)c4ccc(C)cc4)CC3)cc2)Cc2ccc(F)cc2)c1 [UNC10245410A, COc1cccc(c1)C(=O)N(CC(=O)Nc1ccc(cc1)N1CCN(CC1)C(=O)c1ccc(C)cc1)Cc1ccc(F)cc1] | 11 µM |  |
| COc1ccccc1OCCCn1cc(C=C2C(=O)NC(=O)N(Cc3ccco3)C2=O)c2ccccc21 [UNC10245533, COc1ccccc1OCCCn1cc(C=C2C(=O)NC(=O)N(Cc3ccco3)C2=O)c2ccccc12] | 9.8 µM |  |
| Cc1cccc(OCCCn2cc(C=C3C(=O)NC(=O)N(Cc4ccco4)C3=O)c3ccccc32)c1 [UNC10245535, Cc1cccc(OCCCn2cc(C=C3C(=O)NC(=O)N(Cc4ccco4)C3=O)c3ccccc23)c1] | 6.1 µM |  |
| COc1cccc(CNC(=O)C2CCN(C(=O)[C@@H](Cc3ccccc3)NC(=O)COc3ccccc3)CC2)c1 [UNC10245418A, COc1cccc(CNC(=O)C2CCN(CC2)C(=O)[C@@H](Cc2ccccc2)NC(=O)COc2ccccc2)c1] | 93 µM |  |
